Assay results reported in patent publication US20200069592A1, “HSP90 INHIBITOR ORAL FORMULATIONS AND RELATED METHODS” (Samus Therapeutics, Inc., priority 2017, published 2020).

Columns and labels:
[1] = Plasma pharmacokinetics after single oral dose in ORA-Plus or SyrSpend SF (Example 6), LC-MS/MS; type: in vivo, Sprague Dawley rats; conditions: for AUC % Extrap / Cl_F / Vz_F / AUC(0-inf) / AUC(0-t) / Cmax / Tmax / half-life: rat plasma; for % AUC0-last test vs reference: rats, ratio of group averages; for AUC(0-inf) / AUC(0-t) / Cmax / Tmax / half-life: female, rat, plasma, po
[2] = Particle size distribution (Cilas 1180) of as-received and jet milled API (Example 8); type: physicochemical
Experimental: Compound 2 API ‘as-received’ (Lots #2064-118-8, #2064-146-9, and # BPR-WS 1828-194D(2HCl)—B1-19) were analyzed for PSD on a Cilas 1180 particle size analyzer. Subsequently jet milled API batches B # L0441-20-JM51mmP1, B # L0441-20-JM51mmP2, B # L0441-20-JM51mmP3, and B # L0441-84-JM146mmP1 were also analyzed for PSD Approximately 50 mg Compound 2-2HCl was dispersed into 40 mL 0.2% (w/w) span 80 in n-hexanes (dispersant) and allowed to mix for 60 minutes. API was kept suspended in dispersant via stirring and sonication during test.
A jet milling study was performed on a batch of Compound 2 2HCl with jet mill Fluid Energy Asset #00170 outfitted with a 51 mm collection loop. Batches B # L0441-29-JM51mmP1, B # L0441-29-JM51mmP2, and B # L0441-29-JM51mmP3 were created from ˜10 g of Compound 2 lot # BPR-WS1828-194D(2HCl)-B1-19 subjected to 3 passes. Jet mill settings for grinder nozzle and pusher nozzle as follows: Pass 1 grinder nozzle=60 psi & pusher nozzle=80 psi, Pass 2 and 3 grinder nozzle=50 psi & pusher nozzle=70 psi.
After successfully jet milling on the R&D scale, B # L0441-84-JM146mmP1 was created from Compound 2-2HCl lot # BPR-17-87-B1-21d which was processed with a single pass to confirm GMP scale up conditions in the R&D laboratory by passing 85 g through the GMP jet mill Jet-O-Mizer Asset #01 16 Model 0101 outfitted with 146 mm collection loop using a standard nylon 4×48-inch collection sock inside a PTFE 4×48-inch sock to minimize fines loss. The pressure settings for the grinder and pusher nozzle were: Grinder nozzle 60 psi, Pusher nozzle 70 psi.

[3] = Solubility of the 2HCl salt in dosing vehicle (Example 6); type: physicochemical; conditions: SyrSpend SF Solution (dosing vehicle), aqueous with cosolvent or surfactant or cyclodextrin; pH ~2.5
Description: Dose levels of Compound 2 were based on the free base, not the salt. […] Dosage forms of Compound 2 2HCl in ORA-Plus® and in SyrSpend® SF Cherry appeared to be suspension instead of clear solutions. Final physical appearance matched that of the vehicle used. Due to opaque properties of vehicles, full solubility could not be confirmed. However, resultant dosing material appeared homogenous. Dosage forms of Compound 2 2HCl in ORA-Plus® and in SyrSpend® SF Cherry were made fresh immediately prior to use.

[4] = G3: 2HCl, 24 mg/kg single oral dose, ORA-plus
[5] = G4: 2HCl, 48 mg/kg single oral dose, ORA-plus
[6] = G9: 2HCl, 24 mg/kg single oral dose, SyrSpend
[7] = G10: 2HCl, 48 mg/kg single oral dose, SyrSpend, n = 2
[8] = G11: 2HCl, 60 mg/kg single oral dose, SyrSpend, n = 4
[9] = Sprague Dawley, 24 mg/kg, G3: 2HCl, 24 mg/kg single oral dose, ORA-plus
[10] = Sprague Dawley, 24 mg/kg, G9: 2HCl, 24 mg/kg single oral dose, SyrSpend
[11] = Sprague-Dawley, 24 mg/kg, G9: 2HCl, 24 mg/kg single oral dose, SyrSpend
[12] = Sprague-Dawley, 48 mg/kg, G4: 2HCl, 48 mg/kg single oral dose, ORA-plus
[13] = Sprague-Dawley, 48 mg/kg, G10: 2HCl, 48 mg/kg single oral dose, SyrSpend
[14] = Sprague-Dawley, 60 mg/kg, G11: 2HCl, 60 mg/kg single oral dose, SyrSpend
[15] = Lot 2064-118-8, API as received
[16] = Lot 2064-146-9, API as received
[17] = Lot BPR-17-87-B1-21d, API as received
[18] = Lot BPR-17-87-B1-21d, jet milled batch B#L0441-84-JM146mmP1
[19] = Lot BPR-WS1828-194D(2HCL)-B1-19, API as received
[20] = Lot BPR-WS1828-194D(2HCL)-B1-19, jet milled batch B#L0441-20-JM51mmP1
[21] = Lot BPR-WS1828-194D(2HCL)-B1-19, jet milled batch B#L0441-20-JM51mmP2
[22] = Lot BPR-WS1828-194D(2HCL)-B1-19, jet milled batch B#L0441-20-JM51mmP3

CC(C)(C)CNCCn1c(Sc2cc3c(cc2I)OCO3)nc2c(N)ncnc21 [Compound 2 2HCl]
AUC % Extrap [1, 4]: 4.00 ± 1.84%
Cl_F [1, 4]: 357.3 ± 155 mL/min/kg
Vz_F [1, 4]: 81.00 ± 80.22 L/kg
AUC % Extrap [1, 5]: 1.32 ± 2.64%
Cl_F [1, 5]: 154 ± 76.5 mL/min/kg
Vz_F [1, 5]: 28.42 ± 13.10 L/kg
AUC % Extrap [1, 6]: 4.72 ± 4.49%
Cl_F [1, 6]: 405.8 ± 204.3 mL/min/kg
Vz_F [1, 6]: 129.96 ± 81.45 L/kg
AUC % Extrap [1, 7]: 2.05 ± 0.35 %
Cl_F [1, 7]: 124 ± 23 mL/min/kg
Vz_F [1, 7]: 45.95 ± 8.11 L/kg
AUC % Extrap [1, 8]: 0.68 ± 0.89 %
Cl_F [1, 8]: 219.2 ± 72.5 mL/min/kg
Vz_F [1, 8]: 55.47 ± 25.73 L/kg
% AUC0-last test vs reference ([1]; Group 3 (24 mg/kg 2HCl ORA-plus) vs Group 9 (24 mg/kg 2HCl SyrSpend)): 109.55%
% AUC0-last test vs reference ([1]; Group 4 (48 mg/kg 2HCl ORA-plus) vs Group 10 (48 mg/kg 2HCl SyrSpend)): 73.71%
% AUC0-last test vs reference ([1]; Group 9 (24 mg/kg 2HCl SyrSpend) vs Group 10 (48 mg/kg 2HCl SyrSpend)): 13.71%
% AUC0-last test vs reference ([1]; Group 9 (24 mg/kg 2HCl SyrSpend) vs Group 11 (60 mg/kg 2HCl SyrSpend)): 24.05%
% AUC0-last test vs reference ([1]; Group 10 (48 mg/kg 2HCl SyrSpend) vs Group 11 (60 mg/kg 2HCl SyrSpend)): 175.45%
AUC(0-inf) [1, 9]: 1340 ± 678 ng·h/mL
AUC(0-t) [1, 9]: 1290 ± 666 ng·h/mL
Cmax [1, 9]: 407 ± 278 ng/mL
Tmax [1, 9]: 1.6 ± 0.55 h
half-life [1, 9]: 2.34 ± 1.76 h
AUC(0-inf) [1, 10]: 1240 ± 717 ng·h/mL
AUC(0-t) [1, 10]: 1180 ± 688 ng·h/mL
AUC(0-t) ([1]; Sprague Dawley, 48 mg/kg, G10: 2HCl, 48 mg/kg single oral dose, SyrSpend): 8580 ± 2220 ng·h/mL
AUC(0-inf) ([1]; Sprague Dawley, 48 mg/kg, G10: 2HCl, 48 mg/kg single oral dose, SyrSpend, n = 2): 6560 ± 1220 ng·h/mL
AUC(0-t) ([1]; Sprague Dawley, 60 mg/kg, G11: 2HCl, 60 mg/kg single oral dose, SyrSpend): 4890 ± 1310 ng·h/mL
AUC(0-inf) ([1]; Sprague Dawley, 60 mg/kg, G11: 2HCl, 60 mg/kg single oral dose, SyrSpend, n = 4): 4950 ± 1780 ng·h/mL
Cmax [1, 11]: 270 ± 184 ng/mL
Tmax [1, 11]: 1.2 ± 0.45 h
half-life [1, 11]: 3.41 ± 1.24 h
AUC(0-inf) [1, 12]: 6370 ± 3170 ng·h/mL
AUC(0-t) [1, 12]: 6320 ± 3210 ng·h/mL
Cmax [1, 12]: 1120 ± 429 ng/mL
Tmax [1, 12]: 2.2 ± 1.1 h
half-life [1, 12]: 2.18 ± 0.35 h
Cmax [1, 13]: 1140 ± 311 ng/mL
Tmax [1, 13]: 4 ± 1.41 h
half-life ([1]; Sprague-Dawley, 48 mg/kg, G10: 2HCl, 48 mg/kg single oral dose, SyrSpend, n = 2): 4.28 ± 0.04 h
Cmax [1, 14]: 825 ± 247 ng/mL
Tmax [1, 14]: 2.6 ± 1.34 h
half-life ([1]; Sprague-Dawley, 60 mg/kg, G11: 2HCl, 60 mg/kg single oral dose, SyrSpend, n = 4): 2.84 ± 0.83 h
Particle size distribution d10 [2, 15]: 12.0 μm
Particle size distribution d50 [2, 15]: 42.8 μm
Particle size distribution d90 [2, 15]: 131.6 μm
Particle size distribution d10 [2, 16]: 8.4 μm
Particle size distribution d50 [2, 16]: 23.0 μm
Particle size distribution d90 [2, 16]: 57.7 μm
Particle size distribution d10 [2, 17]: 11.6 μm
Particle size distribution d50 [2, 17]: 35.7 μm
Particle size distribution d90 [2, 17]: 98.3 μm
Particle size distribution d10 [2, 18]: 1.9 μm
Particle size distribution d50 [2, 18]: 3.9 μm
Particle size distribution d90 [2, 18]: 8.0 μm
Particle size distribution d10 [2, 19]: 11.0 μm
Particle size distribution d50 [2, 19]: 33.1 μm
Particle size distribution d90 [2, 19]: 83.0 μm
Particle size distribution d10 [2, 20]: 3.1 μm
Particle size distribution d50 [2, 20]: 7.9 μm
Particle size distribution d90 [2, 20]: 17.3 μm
Particle size distribution d10 [2, 21]: 2.3 μm
Particle size distribution d50 [2, 21]: 5.6 μm
Particle size distribution d90 [2, 21]: 11.7 μm
Particle size distribution d10 [2, 22]: 2.0 μm
Particle size distribution d50 [2, 22]: 4.8 μm
Particle size distribution d90 [2, 22]: 10.1 μm
solubility [3]: 20 to 25 mg/mL
